Columns and labels:
[1] = target: Serine/threonine-protein kinase PLK2 (Homo sapiens, UniProt Q9NYY3); experiment: Selectivity interaction (KinomeScan (DiscoverX)) EUB0000229b PLK2; conditions: at 10 µM
[2] = target: Bromodomain-containing protein 7 (Homo sapiens) (UniProt Q9NPI1); experiment: Selectivity interaction (Human bromodomain panel (DSF assay)) EUB0000233b BRD7
[3] = target: Vascular endothelial growth factor receptor 2 (Homo sapiens, UniProt P35968); experiment: Selectivity interaction (Kinase panel (Eurofins)) EUB0001564a KDR; conditions: at 1 µM
[4] = target: Wee1-like protein kinase (Homo sapiens) (UniProt P30291); experiment: Selectivity interaction (ActivX KiNativ screen (kinase selectivity in THP-1 cell lysates)) EUB0000639a WEE1; type: subcellular; conditions: lysate
[5] = target: Serine/threonine-protein kinase ATR (Homo sapiens) (UniProt Q13535); experiment: Selectivity interaction (ActivX KiNativ screen (kinase selectivity in THP-1 cell lysates)) EUB0000639a ATR; type: subcellular; conditions: lysate
[6] = target: Vascular endothelial growth factor receptor 1 (Homo sapiens) (UniProt P17948); experiment: Selectivity interaction (Kinase panel (DSF assay)) EUB0001489b FLT1
[7] = target: Cyclin-dependent kinase 15 (Homo sapiens) (UniProt Q96Q40); experiment: Selectivity interaction (KinomeScan (DiscoverX)) EUB0000092b CDK15; conditions: at 10 µM
[8] = target: Mitogen-activated protein kinase 6 (Homo sapiens) (UniProt Q16659); experiment: Selectivity interaction (KinomeScan (DiscoverX)) EUB0000092b MAPK6; conditions: at 10 µM
[9] = target: T1, Phosphatidylinositol 3-kinase C2 domain-containing subunit gamma (Homo sapiens) (UniProt O75747); conditions: at 10 µM
T1 sequence (whole entry): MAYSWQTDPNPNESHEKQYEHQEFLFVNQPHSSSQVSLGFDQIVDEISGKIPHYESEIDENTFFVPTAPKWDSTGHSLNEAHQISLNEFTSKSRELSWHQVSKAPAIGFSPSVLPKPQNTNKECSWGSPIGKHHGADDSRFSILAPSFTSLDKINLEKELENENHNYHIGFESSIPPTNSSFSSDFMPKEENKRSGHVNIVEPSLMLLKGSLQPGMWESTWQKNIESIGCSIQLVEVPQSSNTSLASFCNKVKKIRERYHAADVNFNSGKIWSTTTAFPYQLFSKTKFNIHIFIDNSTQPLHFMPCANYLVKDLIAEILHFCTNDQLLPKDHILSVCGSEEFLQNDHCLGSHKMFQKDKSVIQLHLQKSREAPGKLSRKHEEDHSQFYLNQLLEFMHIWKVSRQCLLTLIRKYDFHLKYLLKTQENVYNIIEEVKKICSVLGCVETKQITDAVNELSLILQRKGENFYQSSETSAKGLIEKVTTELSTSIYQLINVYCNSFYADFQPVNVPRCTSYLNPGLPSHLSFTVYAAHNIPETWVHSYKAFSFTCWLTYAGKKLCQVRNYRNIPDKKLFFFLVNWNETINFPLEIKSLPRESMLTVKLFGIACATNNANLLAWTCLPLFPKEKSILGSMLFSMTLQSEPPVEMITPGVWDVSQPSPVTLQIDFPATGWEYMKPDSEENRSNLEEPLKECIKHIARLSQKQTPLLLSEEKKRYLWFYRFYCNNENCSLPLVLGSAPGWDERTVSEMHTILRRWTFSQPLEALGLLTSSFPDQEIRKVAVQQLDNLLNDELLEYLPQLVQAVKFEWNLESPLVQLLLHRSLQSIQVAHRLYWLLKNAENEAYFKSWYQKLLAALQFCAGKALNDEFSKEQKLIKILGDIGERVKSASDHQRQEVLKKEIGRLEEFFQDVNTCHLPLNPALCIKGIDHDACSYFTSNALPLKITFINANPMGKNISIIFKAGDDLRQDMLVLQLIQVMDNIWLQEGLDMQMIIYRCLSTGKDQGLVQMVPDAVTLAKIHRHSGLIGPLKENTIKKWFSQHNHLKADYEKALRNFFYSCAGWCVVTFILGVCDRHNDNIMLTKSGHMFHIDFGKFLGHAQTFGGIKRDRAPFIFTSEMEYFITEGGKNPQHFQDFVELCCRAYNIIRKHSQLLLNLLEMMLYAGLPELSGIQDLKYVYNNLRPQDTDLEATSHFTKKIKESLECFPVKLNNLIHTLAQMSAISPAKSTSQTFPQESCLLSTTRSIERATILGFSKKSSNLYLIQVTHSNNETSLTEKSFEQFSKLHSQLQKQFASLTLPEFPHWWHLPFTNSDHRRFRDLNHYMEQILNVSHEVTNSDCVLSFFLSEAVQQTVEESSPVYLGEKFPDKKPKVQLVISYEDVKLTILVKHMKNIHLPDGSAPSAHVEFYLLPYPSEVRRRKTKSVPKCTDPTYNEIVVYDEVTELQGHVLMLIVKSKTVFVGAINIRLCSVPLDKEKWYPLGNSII

[10] = target: Ephrin type-A receptor 5 (Homo sapiens) (UniProt P54756); experiment: Selectivity interaction (SelectScreen profiling (Invitrogen)) EUB0000607a EPHA5; conditions: at 2 µM
[11] = target: Serine/threonine-protein kinase PAK 6 (Homo sapiens) (UniProt Q9NQU5); experiment: Selectivity interaction (SelectScreen profiling (Invitrogen)) EUB0000607a PAK6; conditions: at 2 µM
[12] = target: Tyrosine-protein kinase JAK2 (Homo sapiens, UniProt O60674); experiment: Selectivity interaction (SelectScreen profiling (Invitrogen)) EUB0000607a JAK2; conditions: at 2 µM

Sequence of Serine/threonine-protein kinase ATR (Homo sapiens) (Q13535 whole entry, looked up): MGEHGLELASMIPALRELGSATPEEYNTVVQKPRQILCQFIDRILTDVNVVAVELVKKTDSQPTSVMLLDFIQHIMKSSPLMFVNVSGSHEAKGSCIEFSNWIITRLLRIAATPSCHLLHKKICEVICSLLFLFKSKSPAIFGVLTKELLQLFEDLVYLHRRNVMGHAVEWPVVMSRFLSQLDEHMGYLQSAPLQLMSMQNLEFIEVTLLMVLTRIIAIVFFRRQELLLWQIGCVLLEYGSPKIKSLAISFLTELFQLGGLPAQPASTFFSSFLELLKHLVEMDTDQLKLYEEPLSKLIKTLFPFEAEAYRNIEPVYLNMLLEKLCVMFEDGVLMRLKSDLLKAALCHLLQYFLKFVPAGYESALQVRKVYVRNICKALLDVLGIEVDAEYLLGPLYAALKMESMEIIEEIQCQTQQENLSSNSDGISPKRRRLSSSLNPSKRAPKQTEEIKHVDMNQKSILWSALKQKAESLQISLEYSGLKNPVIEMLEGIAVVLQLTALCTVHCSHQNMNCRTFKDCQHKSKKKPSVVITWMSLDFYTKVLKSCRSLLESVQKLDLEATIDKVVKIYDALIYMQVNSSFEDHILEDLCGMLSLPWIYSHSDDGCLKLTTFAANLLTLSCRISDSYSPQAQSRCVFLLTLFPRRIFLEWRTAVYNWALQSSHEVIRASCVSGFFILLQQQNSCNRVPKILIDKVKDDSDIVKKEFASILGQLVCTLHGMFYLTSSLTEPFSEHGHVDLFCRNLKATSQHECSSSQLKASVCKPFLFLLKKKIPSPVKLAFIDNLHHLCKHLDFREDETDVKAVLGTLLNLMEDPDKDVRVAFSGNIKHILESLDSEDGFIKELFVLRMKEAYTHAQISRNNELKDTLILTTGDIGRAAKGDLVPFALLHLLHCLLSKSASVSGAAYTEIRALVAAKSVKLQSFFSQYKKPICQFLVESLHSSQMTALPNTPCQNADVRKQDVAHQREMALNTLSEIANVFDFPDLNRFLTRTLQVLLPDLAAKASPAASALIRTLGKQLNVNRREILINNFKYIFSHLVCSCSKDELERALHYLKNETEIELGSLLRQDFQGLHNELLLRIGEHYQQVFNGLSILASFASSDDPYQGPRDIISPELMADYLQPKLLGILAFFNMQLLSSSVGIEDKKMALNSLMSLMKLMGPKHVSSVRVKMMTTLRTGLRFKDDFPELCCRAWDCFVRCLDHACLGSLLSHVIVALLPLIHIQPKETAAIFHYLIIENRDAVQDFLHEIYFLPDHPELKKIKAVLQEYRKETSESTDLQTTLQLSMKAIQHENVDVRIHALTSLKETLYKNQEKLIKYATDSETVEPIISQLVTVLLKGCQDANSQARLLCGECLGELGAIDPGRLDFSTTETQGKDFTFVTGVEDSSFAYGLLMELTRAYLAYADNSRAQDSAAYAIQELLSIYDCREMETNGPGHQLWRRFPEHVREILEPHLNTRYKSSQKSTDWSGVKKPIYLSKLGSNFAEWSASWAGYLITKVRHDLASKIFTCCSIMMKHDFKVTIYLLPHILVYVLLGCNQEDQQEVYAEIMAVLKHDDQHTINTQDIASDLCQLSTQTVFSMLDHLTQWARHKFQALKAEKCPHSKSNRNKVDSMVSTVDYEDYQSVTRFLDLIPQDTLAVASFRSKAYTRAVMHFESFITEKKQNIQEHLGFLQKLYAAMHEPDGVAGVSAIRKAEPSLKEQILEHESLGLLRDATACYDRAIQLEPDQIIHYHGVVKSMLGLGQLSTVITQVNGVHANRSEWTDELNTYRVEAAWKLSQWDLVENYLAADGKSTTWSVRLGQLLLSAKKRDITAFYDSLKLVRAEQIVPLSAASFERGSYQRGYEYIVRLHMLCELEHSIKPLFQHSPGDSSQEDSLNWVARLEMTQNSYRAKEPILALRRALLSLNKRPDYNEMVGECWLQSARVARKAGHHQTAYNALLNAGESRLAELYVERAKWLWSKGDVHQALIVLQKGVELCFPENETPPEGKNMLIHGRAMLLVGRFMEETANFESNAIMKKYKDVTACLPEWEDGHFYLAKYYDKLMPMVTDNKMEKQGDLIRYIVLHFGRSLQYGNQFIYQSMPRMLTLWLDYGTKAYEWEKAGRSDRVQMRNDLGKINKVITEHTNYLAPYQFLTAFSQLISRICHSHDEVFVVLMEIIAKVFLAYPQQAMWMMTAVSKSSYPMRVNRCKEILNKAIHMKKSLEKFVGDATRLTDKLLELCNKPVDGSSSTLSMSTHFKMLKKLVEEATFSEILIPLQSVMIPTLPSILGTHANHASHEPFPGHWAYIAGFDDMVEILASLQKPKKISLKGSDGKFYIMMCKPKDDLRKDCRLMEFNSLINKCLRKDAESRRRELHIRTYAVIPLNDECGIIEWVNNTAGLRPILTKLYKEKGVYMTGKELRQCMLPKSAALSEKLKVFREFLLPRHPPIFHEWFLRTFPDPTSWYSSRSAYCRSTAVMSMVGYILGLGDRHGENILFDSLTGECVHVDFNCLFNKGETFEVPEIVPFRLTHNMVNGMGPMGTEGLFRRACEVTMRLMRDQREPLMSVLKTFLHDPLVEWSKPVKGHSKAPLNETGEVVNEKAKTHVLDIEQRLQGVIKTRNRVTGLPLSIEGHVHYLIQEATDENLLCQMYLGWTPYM
Sequence of Wee1-like protein kinase (Homo sapiens) (P30291 whole entry, looked up): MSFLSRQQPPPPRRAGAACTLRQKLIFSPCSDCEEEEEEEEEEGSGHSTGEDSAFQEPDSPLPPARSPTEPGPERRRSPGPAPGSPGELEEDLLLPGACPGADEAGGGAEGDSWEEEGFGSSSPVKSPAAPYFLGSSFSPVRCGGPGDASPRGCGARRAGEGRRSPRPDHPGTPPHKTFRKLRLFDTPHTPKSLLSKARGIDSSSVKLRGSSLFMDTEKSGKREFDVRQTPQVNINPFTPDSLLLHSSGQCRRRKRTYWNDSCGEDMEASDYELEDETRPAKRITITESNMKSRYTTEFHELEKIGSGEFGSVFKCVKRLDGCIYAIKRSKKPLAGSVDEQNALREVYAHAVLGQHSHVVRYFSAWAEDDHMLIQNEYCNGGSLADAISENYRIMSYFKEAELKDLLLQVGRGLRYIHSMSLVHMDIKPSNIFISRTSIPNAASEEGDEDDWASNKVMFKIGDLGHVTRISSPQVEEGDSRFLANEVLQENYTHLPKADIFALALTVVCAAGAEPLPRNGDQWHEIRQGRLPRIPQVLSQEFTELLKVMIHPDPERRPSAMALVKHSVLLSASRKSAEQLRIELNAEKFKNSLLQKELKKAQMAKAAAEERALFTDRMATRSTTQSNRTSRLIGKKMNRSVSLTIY
Sequence of Mitogen-activated protein kinase 6 (Homo sapiens) (Q16659 whole entry, the tested form may be a part): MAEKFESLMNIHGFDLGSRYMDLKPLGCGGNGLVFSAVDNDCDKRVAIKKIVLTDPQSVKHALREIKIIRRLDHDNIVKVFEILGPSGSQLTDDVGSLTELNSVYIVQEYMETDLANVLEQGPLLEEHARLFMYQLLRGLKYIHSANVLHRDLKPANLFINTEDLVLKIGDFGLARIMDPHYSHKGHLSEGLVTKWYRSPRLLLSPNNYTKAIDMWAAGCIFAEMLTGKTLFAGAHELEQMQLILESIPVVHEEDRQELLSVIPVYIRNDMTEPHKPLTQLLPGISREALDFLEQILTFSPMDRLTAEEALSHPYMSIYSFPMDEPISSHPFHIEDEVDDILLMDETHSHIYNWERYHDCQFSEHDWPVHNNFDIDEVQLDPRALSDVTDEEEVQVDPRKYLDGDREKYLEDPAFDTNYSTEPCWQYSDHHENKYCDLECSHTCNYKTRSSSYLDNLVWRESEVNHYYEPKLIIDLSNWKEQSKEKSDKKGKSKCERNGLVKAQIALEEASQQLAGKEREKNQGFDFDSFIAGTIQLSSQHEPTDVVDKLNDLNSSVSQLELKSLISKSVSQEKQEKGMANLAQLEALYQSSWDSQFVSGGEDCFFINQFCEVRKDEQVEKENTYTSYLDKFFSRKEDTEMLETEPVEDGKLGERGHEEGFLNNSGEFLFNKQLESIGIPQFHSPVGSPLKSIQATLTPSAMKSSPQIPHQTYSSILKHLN
Sequence of Serine/threonine-protein kinase PAK 6 (Homo sapiens) (Q9NQU5 whole entry, looked up): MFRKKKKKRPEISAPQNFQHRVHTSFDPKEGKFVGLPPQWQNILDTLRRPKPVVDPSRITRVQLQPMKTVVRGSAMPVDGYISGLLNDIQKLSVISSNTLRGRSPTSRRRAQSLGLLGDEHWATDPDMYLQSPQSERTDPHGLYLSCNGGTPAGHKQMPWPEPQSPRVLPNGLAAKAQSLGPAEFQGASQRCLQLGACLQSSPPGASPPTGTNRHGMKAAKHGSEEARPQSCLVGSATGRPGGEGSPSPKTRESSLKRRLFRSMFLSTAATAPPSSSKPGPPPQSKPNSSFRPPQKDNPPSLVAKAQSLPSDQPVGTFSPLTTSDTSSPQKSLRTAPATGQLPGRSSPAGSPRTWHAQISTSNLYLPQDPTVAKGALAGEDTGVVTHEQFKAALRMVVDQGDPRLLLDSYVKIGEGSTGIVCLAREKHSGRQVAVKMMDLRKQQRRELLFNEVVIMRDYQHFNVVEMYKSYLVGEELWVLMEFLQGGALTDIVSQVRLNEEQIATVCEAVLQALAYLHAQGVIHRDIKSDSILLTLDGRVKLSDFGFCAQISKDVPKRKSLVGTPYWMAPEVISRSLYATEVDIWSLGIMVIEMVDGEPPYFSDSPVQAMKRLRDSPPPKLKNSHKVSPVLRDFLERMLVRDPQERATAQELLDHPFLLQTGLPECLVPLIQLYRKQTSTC
Sequence of Cyclin-dependent kinase 15 (Homo sapiens) (Q96Q40 whole entry): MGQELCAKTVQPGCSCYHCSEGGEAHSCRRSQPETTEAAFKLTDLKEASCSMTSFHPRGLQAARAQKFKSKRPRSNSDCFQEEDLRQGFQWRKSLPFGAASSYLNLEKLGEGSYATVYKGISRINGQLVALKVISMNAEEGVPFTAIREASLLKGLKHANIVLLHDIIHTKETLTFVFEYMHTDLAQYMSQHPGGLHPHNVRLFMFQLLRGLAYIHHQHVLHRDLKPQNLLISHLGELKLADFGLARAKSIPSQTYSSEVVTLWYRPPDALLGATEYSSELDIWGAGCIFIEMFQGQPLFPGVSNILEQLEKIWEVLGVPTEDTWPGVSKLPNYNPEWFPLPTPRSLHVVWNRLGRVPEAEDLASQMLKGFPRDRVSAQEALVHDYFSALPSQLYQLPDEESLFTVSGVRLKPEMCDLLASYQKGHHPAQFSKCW

COc1cc(N(C)c2ccnc3ccc(C(F)(F)F)cc23)cc(OC)c1OC
% binding [1]: 88%

CN(C)CCCOc1ccc(-c2cc(NCCCn3cccn3)nc(S(C)(=O)=O)n2)cc1
dTM [2]: 4 K

CC[C@@H](Nc1c(C#N)c(-c2ccc(-c3cccc(C)c3F)cc2)nc2cnccc12)C(=O)O [BAY-091]
% of inhibition [3]: 50.1%

CC[C@@H]1[C@H](F)C(=O)N[C@@H]1COc1nccc2cc(C(N)=O)c(OC)cc12 [ZIMLOVISERTIB]
% of inhibition ([4]; at 0.01 µM): 25.6% | % of inhibition ([4]; at 0.04 µM): -1.5% | % of inhibition ([4]; at 0.2 µM): 3.2% | % of inhibition ([4]; at 1 µM): -5.7% | % of inhibition ([4]; at 5 µM): 35.6% | % of inhibition ([5]; at 0.01 µM): 14.9% | % of inhibition ([5]; at 0.04 µM): 0% | % of inhibition ([5]; at 0.2 µM): -4.2% | % of inhibition ([5]; at 1 µM): 14.1% | % of inhibition ([5]; at 5 µM): 18.6%

CN1CCN(C(=O)c2ccc3cc2OCCOCCNc2ccn4ncc-3c4n2)CC1
dTM [6]: 2.9 K

CCC(=O)N1CCN(c2ccc(-n3c(=O)ccc4cnc5ccc(-c6cnc7ccccc7c6)cc5c43)cc2C(F)(F)F)CC1
% of control [7]: 88% | % of control [8]: 1.8%

Cc1cc([C@@H](C)Nc2ccccc2C(=O)O)c2nc(N3CCOCC3)cc(=O)n2c1 [AZD-6482]
% of control [9]: 7%

CNC(=O)Nc1ccc(-c2nc(N3CC4CCC(C3)O4)c3cnn(C4CCC5(CC4)OCCO5)c3n2)cc1
% of inhibition [10]: 2% | % of inhibition [11]: 11% | % of inhibition [12]: 2%
